The target in one assay is T1, erbB2 tyrosine kinase (Homo sapiens, UniProt P04626).
T1 construct: Recombinant intracellular fragments of EGFR, erbB2 and erbB4; made in house; host or cells: baculovirus/Sf21 insect cells (cleared lysate used)
The assay is described as follows: Protein tyrosine kinase phosphorylation assay, Test (a), erbB2. The conditions noted are these: read-out: IC50 (μM) Test (a): Inhibition of erbB2 tyrosine kinase protein phosphorylation. It is filed as biochemical. The method, then: (§1) Recombinant intracellular fragments of EGFR, erbB2 and erbB4 (accession numbers X00588, X03363 and L07868 respectively) were cloned and expressed in the baculovirus/Sf21 system. Lysates were prepared from these cells by treatment with ice-cold lysis buffer (20 mM N-2-hydroxyethylpiperizine-N′-2-ethanesulfonic acid (HEPES) pH7.5, 150 mM NaCl, 10% glycerol, 1% Triton X-100, 1.5 mM MgCl2, 1 mM ethylene glycol-bis(β-aminoethyl ether)N′,N′,N′,N′-tetraacetic acid (EGTA), plus protease inhibitors and then cleared by centrifugation.
Constitutive kinase activity of these recombinant proteins was determined by their ability to phosphorylate a synthetic peptide (made up of a random co-polymer of Glutamic Acid, Alanine and Tyrosine in the ratio of 6:3:1). Specifically, Maxisorb™ 96-well immunoplates were coated with synthetic peptide (0.2 μg of peptide in a […] phosphate buffered saline (PBS) solution and incubated at 4° C. overnight). Plates were washed in 50 mM HEPES pH 7.4 at room temperature to remove any excess unbound synthetic peptide. EGFR or erbB2 activities were assessed by incubation in peptide coated plates for 20 minutes at room temperature in 100 mM HEPES pH 7.4 at room temperature, adenosine trisphosphate (ATP) at Km concentration for the respective enzyme, 10 mM MnCl2, 0.1 mM Na3VO4, 0.2 mM DL-dithiothreitol (DTT), 0.1% Triton X-100 with test compound in DMSO (final concentration of 2.5%). […]
The immobilised phospho-peptide product of the reaction was detected by immunological methods. […] After further washing, HRP activity in each well of the plate was measured colorimetrically using 22′-Azino-di-[3-ethylbenzthiazoline sulfonate (6)]diammonium salt crystals (ABTS™ from Roche) as a substrate. Quantification of colour development and thus enzyme activity was achieved by the measurement of absorbance at 405 nm on a Molecular Devices ThermoMax microplate reader. Kinase inhibition for a given compound was expressed as an IC50 value. […] The range of phosphorylation was calculated from the positive (vehicle plus ATP) and negative (vehicle minus ATP) control values.

A further assay has as its target T2, erbB2 (Homo sapiens, UniProt P04626).
T2 construct: a cell line that overexpresses full length wild type erbB2 protein; expressed in transfected cells; host or cells: MCF7 (breast carcinoma) derived 'Clone 24' cells
The experiment in a line: Clone 24 phospho-erbB2 cell assay, Test (c). It is filed as cell-based. The conditions noted are these: MCF7 derived cell line overexpressing erbB2 (Clone 24 cells); read-out: IC50 (μM) Test (c): Inhibition of erbB2 tyrosine kinase protein phosphorylation. The method, then: This immunofluorescence end point assay measures the ability of a test compound to inhibit the phosphorylation of erbB2 in a MCF7 (breast carcinoma) derived cell line which was generated by transfecting MCF7 cells with the full length erbB2 gene using standard methods to give a cell line that overexpresses full length wild type erbB2 protein (hereinafter ‘Clone 24’ cells).
Clone 24 cells were cultured in Growth Medium (phenol red free Dulbecco's modified Eagle's medium (DMEM) containing 10% foetal bovine serum, 2 mM glutamine and 1.2 mg/ml G418) in a 7.5% CO2 air incubator at 37° C. Cells were harvested from T75 stock flasks by washing once in PBS (phosphate buffered saline, pH7.4, Gibco No. 10010-015) and harvested using 2 mls of Trypsin (1.25 mg/ml)/ethylaminediaminetetraacetic acid (EDTA) (0.8 mg/ml) solution. The cells were resuspended in Growth Medium. Cell density was measured using a haemocytometer and viability was calculated using Trypan Blue solution before being further diluted in Growth Medium and seeded at a density of 1×10^4 cells per well (in 100 ul) into clear bottomed 96 well plates (Packard, No. 6005182).
3 days later, Growth Medium was removed from the wells and replaced with 100 ul Assay Medium (phenol red free DMEM, 2 mM glutamine, 1.2 mg/ml G418) either with or without erbB inhibitor compound. Plates were returned to the incubator for 4 hrs and then 20 μl of 20% formaldehyde solution in PBS was added to each well and the plate was left at room temperature for 30 minutes. This fixative solution was removed with a multichannel pipette, 100 μl of PBS was added to each well and then removed with a multichannel pipette and then 50 μl PBS was added to each well. Plates were then sealed and stored for up to 2 weeks at 4° C.
Immunostaining was performed at room temperature. […]
The Fluorescence signal is each well was measured using an Acumen Explorer Instrument (Acumen Bioscience Ltd.), a plate reader that can be used to rapidly quantitate features of images generated by laser-scanning. […]

The next assay addresses T3, EGFR tyrosine kinase (Homo sapiens, UniProt P00533).
T3 construct: Recombinant intracellular fragments of EGFR, erbB2 and erbB4; made in house; host or cells: baculovirus/Sf21 insect cells (cleared lysate used)
The experiment in a line: Protein tyrosine kinase phosphorylation assay, Test (a), EGFR. Format: biochemical. The conditions noted are these: read-out: IC50 (μM) Test (a): Inhibition of EGFR tyrosine kinase protein phosphorylation. The method, then:
This test measures the ability of a test compound to inhibit the phosphorylation of a tyrosine containing polypeptide substrate by EGFR tyrosine kinase enzyme.
as §1
Constitutive kinase activity of these recombinant proteins was determined by their ability to phosphorylate a synthetic peptide (made up of a random co-polymer of Glutamic Acid, Alanine and Tyrosine in the ratio of 6:3:1). […]
The immobilised phospho-peptide product of the reaction was detected by immunological methods. […] After further washing, HRP activity in each well of the plate was measured colorimetrically using 22′-Azino-di-[3-ethylbenzthiazoline sulfonate (6)]diammonium salt crystals (ABTS™ from Roche) as a substrate. Quantification of colour development and thus enzyme activity was achieved by the measurement of absorbance at 405 nm on a Molecular Devices ThermoMax microplate reader. […]

Usually IC50 stands for the point on the concentration scale where inhibition reaches its midpoint.

T1 sequence (P04626 676-1255 limits assumed): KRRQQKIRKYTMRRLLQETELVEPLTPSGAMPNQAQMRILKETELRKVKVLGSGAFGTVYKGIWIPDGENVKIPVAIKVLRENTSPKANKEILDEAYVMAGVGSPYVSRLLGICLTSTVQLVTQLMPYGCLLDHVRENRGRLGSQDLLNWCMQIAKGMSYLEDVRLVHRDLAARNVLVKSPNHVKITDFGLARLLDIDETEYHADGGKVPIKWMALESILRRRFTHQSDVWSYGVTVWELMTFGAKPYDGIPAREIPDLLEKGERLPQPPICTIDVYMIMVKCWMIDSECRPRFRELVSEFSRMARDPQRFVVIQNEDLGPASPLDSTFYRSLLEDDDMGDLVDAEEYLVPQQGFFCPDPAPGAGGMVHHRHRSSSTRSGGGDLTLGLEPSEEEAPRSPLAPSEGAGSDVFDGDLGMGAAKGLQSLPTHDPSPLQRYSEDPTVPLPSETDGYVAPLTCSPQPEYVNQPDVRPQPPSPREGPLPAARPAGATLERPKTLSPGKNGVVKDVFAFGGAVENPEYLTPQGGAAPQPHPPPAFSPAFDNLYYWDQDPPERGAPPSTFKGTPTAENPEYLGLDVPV
T2 sequence (P04626 23-1255): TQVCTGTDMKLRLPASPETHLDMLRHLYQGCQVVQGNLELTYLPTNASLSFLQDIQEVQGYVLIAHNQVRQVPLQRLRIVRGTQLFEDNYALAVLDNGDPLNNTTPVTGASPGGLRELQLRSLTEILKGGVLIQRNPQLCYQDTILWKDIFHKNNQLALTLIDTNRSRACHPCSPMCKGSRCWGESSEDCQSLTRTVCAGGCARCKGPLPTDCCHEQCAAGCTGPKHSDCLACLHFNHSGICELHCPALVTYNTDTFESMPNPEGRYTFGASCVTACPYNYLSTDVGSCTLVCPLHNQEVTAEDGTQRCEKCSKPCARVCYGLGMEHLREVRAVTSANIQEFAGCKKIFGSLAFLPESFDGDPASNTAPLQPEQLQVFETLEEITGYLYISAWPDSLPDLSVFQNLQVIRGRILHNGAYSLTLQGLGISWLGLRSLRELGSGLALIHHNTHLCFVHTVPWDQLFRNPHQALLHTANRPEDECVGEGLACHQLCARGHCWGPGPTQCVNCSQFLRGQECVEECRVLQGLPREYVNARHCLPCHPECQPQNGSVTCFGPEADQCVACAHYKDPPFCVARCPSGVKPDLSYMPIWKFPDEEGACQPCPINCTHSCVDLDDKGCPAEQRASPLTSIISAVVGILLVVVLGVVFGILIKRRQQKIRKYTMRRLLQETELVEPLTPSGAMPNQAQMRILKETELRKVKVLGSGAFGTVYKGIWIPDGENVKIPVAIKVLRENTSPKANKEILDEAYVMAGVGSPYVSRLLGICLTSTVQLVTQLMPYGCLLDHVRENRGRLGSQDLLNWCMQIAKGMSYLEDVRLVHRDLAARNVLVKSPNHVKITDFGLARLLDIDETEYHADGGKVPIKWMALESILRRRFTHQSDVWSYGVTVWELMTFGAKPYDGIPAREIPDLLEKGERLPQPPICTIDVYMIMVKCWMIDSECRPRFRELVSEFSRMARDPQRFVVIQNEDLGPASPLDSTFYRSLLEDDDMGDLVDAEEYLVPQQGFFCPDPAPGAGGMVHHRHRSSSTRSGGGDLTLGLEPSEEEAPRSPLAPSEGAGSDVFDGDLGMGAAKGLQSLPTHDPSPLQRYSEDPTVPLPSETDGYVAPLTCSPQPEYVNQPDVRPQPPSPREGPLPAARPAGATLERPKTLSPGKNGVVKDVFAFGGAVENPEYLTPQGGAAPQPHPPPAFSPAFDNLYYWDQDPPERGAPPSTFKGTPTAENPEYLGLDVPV
T3 sequence (P00533 669-1210 limits assumed): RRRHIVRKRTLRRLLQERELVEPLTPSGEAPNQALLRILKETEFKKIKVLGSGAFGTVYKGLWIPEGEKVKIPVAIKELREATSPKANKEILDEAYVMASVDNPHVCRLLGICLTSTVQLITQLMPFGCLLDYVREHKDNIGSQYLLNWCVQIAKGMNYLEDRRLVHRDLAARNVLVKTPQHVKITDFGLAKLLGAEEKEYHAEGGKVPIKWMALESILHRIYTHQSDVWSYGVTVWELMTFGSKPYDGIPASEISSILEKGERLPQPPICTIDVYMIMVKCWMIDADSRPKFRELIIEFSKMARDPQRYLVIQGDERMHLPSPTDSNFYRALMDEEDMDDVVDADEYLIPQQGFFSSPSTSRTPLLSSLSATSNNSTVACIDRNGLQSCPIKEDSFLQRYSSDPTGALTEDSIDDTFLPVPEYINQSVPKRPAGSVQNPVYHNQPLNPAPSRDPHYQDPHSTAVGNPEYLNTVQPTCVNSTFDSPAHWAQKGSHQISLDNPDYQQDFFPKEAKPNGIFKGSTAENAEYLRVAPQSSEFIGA

For the compound `CN(C)CC(=O)N1CCC[C@@H]1COc1cccc2ncnc(Nc3ccc(OCc4cncs4)c(Cl)c3)c12` [Example 25, N-[3-Chloro-4-(1,3-thiazol-5-ylmethoxy)phenyl]-5-({(2R)-1-[(dimethylamino)acetyl]pyrrolidin-2-yl}methoxy)quinazolin-4-amine], the IC50 came to 0.048 µM on erbB2 tyrosine kinase and 1.4 µM on erbB2.
Take `Cc1cccc(COc2ccc(Nc3ncnc4cccc(OC[C@@H]5CCCN5C(=O)CO)c34)cc2Cl)n1` [Example 40]: the IC50 at erbB2 tyrosine kinase came out at 0.63 µM; on erbB2 it was 2.4 µM; on EGFR tyrosine kinase it was 33 µM.
`O=C(CO)N1CCC[C@H](COc2cccc3ncnc(Nc4ccc(OCc5cscn5)c(Cl)c4)c23)C1` [Example 78, 2-((3S)-3-{[(4-{[3-chloro-4-(1,3-thiazol-4-ylmethoxy)phenyl]amino}quinazolin-5-yl)oxy]methyl}piperidin-1-yl)-2-oxoethanol]: the IC50 is 0.034 µM on erbB2 tyrosine kinase, 0.19 µM on erbB2 and 2.4 µM on EGFR tyrosine kinase.

The record behind these values is US20070015743A1, “Quinazoline derivatives as antitumor agents” (priority 2003, published 2007).
